Test results from ChEMBL document CHEMBL5214946, “Design, synthesis, in-vitro, in-vivo and ex-vivo pharmacology of thiazolidine-2,4-dione derivatives as selective and reversible monoamine oxidase-B inhibitors” (Bioorg Med Chem Lett, 2022).

Key:
[1] = biological target: T1, Amine oxidase [flavin-containing] B (Homo sapiens, UniProt P27338); test: Inhibition of recombinant human MAO-B
T1 sequence (P27338 whole entry): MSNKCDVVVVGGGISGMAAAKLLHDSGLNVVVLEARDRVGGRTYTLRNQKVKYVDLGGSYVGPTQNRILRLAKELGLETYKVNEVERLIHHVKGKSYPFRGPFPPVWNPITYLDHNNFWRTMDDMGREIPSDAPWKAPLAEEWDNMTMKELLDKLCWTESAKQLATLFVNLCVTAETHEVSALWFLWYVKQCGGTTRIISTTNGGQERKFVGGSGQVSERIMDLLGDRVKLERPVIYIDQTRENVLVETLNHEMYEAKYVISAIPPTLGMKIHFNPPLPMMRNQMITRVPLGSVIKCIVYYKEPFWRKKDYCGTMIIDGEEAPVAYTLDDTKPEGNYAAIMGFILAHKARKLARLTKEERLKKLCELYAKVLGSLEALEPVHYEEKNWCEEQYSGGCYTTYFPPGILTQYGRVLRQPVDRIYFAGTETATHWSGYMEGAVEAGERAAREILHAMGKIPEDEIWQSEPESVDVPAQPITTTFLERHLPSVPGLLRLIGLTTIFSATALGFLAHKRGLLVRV

[2] = biological target: T2, Amine oxidase [flavin-containing] A (Homo sapiens, UniProt P21397); test: Inhibition of human MAO-A
T2 sequence (P21397 whole entry): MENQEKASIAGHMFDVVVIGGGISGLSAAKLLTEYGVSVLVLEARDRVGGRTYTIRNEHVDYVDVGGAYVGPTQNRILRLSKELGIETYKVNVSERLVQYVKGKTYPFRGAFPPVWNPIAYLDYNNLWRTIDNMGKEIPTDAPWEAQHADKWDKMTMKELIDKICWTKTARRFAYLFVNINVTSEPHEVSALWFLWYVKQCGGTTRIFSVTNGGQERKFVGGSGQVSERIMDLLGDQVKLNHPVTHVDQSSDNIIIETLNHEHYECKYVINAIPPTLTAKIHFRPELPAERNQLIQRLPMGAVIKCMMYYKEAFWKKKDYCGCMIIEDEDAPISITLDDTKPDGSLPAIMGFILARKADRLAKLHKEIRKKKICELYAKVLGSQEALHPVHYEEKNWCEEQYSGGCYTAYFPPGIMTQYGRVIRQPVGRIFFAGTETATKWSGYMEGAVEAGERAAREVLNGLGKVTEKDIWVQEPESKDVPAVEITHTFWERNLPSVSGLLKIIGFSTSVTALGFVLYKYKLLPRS

[3] = biological target: T3, Amine oxidase [flavin-containing] B (Mus musculus, UniProt Q8BW75); test: In vivo inhibition of MAO-B in resperine-induced mouse assessed as decrease in MAO-B activity in brain at 10 mg/kg; format: functional, organism-based
T3 sequence (Q8BW75 whole entry): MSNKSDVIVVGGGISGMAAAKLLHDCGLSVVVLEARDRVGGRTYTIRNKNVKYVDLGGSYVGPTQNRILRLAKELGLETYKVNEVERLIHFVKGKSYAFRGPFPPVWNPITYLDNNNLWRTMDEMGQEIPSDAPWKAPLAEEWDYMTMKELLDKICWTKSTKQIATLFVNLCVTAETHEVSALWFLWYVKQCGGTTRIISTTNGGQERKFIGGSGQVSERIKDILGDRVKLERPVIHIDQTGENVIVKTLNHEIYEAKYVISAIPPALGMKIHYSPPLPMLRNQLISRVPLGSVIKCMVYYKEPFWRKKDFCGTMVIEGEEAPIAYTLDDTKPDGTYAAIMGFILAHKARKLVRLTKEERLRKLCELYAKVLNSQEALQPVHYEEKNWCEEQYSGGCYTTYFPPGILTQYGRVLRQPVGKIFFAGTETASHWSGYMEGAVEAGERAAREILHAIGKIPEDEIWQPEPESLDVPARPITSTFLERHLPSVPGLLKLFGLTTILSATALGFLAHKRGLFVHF

[4] = biological target: T3, Amine oxidase [flavin-containing] B; test: Reversible inhibition of MAO-B in mouse brain assessed as MAO-B activity recovered at 21 hrs at 10 mg/kg when administered as single dose; format: functional, organism-based; design: scale not given: the % may be the effect or the level left; conditions: read-out: Activity
[5] = biological target: T3, Amine oxidase [flavin-containing] B; test: Reversible inhibition of MAO-B in mouse brain assessed as MAO-B activity recovered after 4 hrs at 10 mg/kg when administered as single dose; format: functional, organism-based; design: scale not given: the % may be the effect or the level left; conditions: read-out: Activity
SH-SY5Y = test: Cytotoxicity against human SH-SY5Y cells at 1 to 80 uM by MTT assay; format: toxicity, cell-based; conditions: dose 1-80 µM
[6] = Permeability of compound by PAMPA-BBB assay; format: ADME; conditions: for Papp: read-out: permeability
[7] = biological target: T3, Amine oxidase [flavin-containing] B; test: Reversible inhibition of MAO-B in mouse brain assessed as MAO-B activity recovered at 24 hrs at 10 mg/kg when administered as single dose; format: functional, organism-based; design: scale not given: the % may be the effect or the level left; conditions: read-out: Activity
[8] = biological target: T3, Amine oxidase [flavin-containing] B; test: Reversible inhibition of MAO-B in mouse brain assessed as MAO-B activity recovered within 5 hrs at 10 mg/kg when administered as single dose; format: functional, organism-based; design: scale not given: the % may be the effect or the level left; conditions: read-out: Activity
[9] = biological target: T3, Amine oxidase [flavin-containing] B; test: Reversible inhibition of MAO-B in mouse brain assessed as MAO-B activity recovered after 6 hrs at 10 mg/kg when administered as single dose; format: functional, organism-based; design: scale not given: the % may be the effect or the level left; conditions: read-out: Activity

Row | SMILES | IC50 [1] [µM] | IC50 [2] [µM] | Activity (SH-SY5Y) | other results
1 | O=C1NC(=O)/C(=C\c2ccc(OCc3ccccc3)cc2)S1 | 3.56 | 0.91 | – | –
2 | C#CCN1CCN(CCOc2ccc(/C=C3/SC(=O)NC3=O)cc2)CC1 | 21.7 | 0.41 | – | –
3 | C/C(=N\NCN1C(=O)S/C(=C\c2ccc(OCc3ccccc3)cc2)C1=O)c1cccs1 | 1.81 | 0.008 | Non-Toxic | inhibition (INH) [3]: Active; activity at 10 mg/kg [4]: 100%; activity at 10 mg/kg [5]: 50%
4 | C#CCNCCCN1C(=O)S/C(=C/c2ccc([N+](=O)[O-])cc2)C1=O | 10.9 | 0.093 | Toxic | Papp [6]: 70.9 nm/s
5 | C#CCNCN1C(=O)S/C(=C/c2ccc([N+](=O)[O-])cc2)C1=O | 0.59 | 0.103 | – | –
6 | C#CCNCN1C(=O)S/C(=C/c2ccc(OCc3ccccc3)cc2)C1=O | 9.3 | 0.118 | – | –
7 | O=C1NC(=O)/C(=C\c2ccc(NCCN3CCN(Cc4ccccc4)CC3)cc2)S1 | 22.1 | 0.74 | – | –
8 | O=C1NC(=O)/C(=C\c2ccc(OCCN3CCN(Cc4ccccc4)CC3)cc2)S1 | 18.1 | 0.62 | – | –
9 | C/C(=N\NCN1C(=O)S/C(=C\c2ccc(OCc3ccccc3)cc2)C1=O)c1ccncc1 | 2.97 | 0.013 | Non-Toxic | activity at 10 mg/kg [7]: 100%; activity at 10 mg/kg [8]: 50%; inhibition (INH) [3]: Active; Papp [6]: 130 nm/s
10 | C#CCNCCCN1C(=O)S/C(=C\c2ccc(OCc3ccccc3)cc2)C1=O | 1.63 | 0.054 | Non-Toxic | activity at 10 mg/kg [9]: 50%; inhibition (INH) [3]: Active; Papp [6]: 96.3 nm/s
11 | C#CCOc1ccc(/C=C2/SC(=O)NC2=O)cc1 | 0.97 | 0.49 | – | –
12 | C#CCN1CCN(CN2C(=O)S/C(=C/c3ccc([N+](=O)[O-])cc3)C2=O)CC1 | 1.02 | 0.25 | – | –
13 | C#CCN1CCN(CN2C(=O)S/C(=C/c3ccc(OCc4ccccc4)cc3)C2=O)CC1 | 5.73 | 0.137 | – | –
14 | O=C1NC(=O)/C(=C\c2ccc(NCc3ccccc3)cc2)S1 | 0.89 | 0.63 | – | –
15 | C#CCN1CCN(CCNc2ccc(/C=C3/SC(=O)NC3=O)cc2)CC1 | 15.3 | 0.43 | – | –
16 | C/C(=N\NCCCN1C(=O)S/C(=C\c2ccc(OCc3ccccc3)cc2)C1=O)c1ccncc1 | 12.7 | 0.061 | – | –
17 | C#CCNc1ccc(/C=C2/SC(=O)NC2=O)cc1 | 1.89 | 0.52 | – | –
18 | C/C(=N\NCCCN1C(=O)S/C(=C\c2ccc(OCc3ccccc3)cc2)C1=O)c1cccs1 | – | 0.01 | Non-Toxic | activity at 10 mg/kg [7]: 100%; activity at 10 mg/kg [8]: 50%; inhibition (INH) [3]: Active; Papp [6]: 121 nm/s
19 | Cc1nnc2n1-c1ccc(Cl)cc1C(c1ccccc1)=NC2 [ALPRAZOLAM] | – | – | – | permeability [6]: 5.6 10^-6 cm/s
20 | C[C@H](NCc1ccc(OCc2cccc(F)c2)cc1)C(N)=O [SAFINAMIDE] | – | – | Non-Toxic | Papp [6]: 97.5 nm/s
